Source: ChEMBL document CHEMBL1158213, “Bioactive steroidal alkaloids from Solanum umbelliferum” (1996)
Activity calls are given as the source filed them. The calls are words filed in the database; no cut-off is given here.

How the values were obtained:
Saccharomyces cerevisiae [1] = assay: DNA damaging activity against DNA repair-deficient RS 322YK (rad 52Y) yeast assessed as drug concentration required to produce 12 mm zone of inhibition; type: functional
Saccharomyces cerevisiae [2] = assay: DNA damaging activity against DNA repair-deficient RS 321 yeast assessed as drug concentration required to produce 12 mm zone of inhibition; type: functional
Saccharomyces cerevisiae [3] = assay: DNA damaging activity against DNA repair-deficient RS 167N (rad6) yeast assessed as drug concentration required to produce 12 mm zone of inhibition; type: functional
Saccharomyces cerevisiae [4] = assay: DNA damaging activity against DNA repair-deficient RS 188N (RAD+) yeast assessed as drug concentration required to produce 12 mm zone of inhibition; type: functional
Saccharomyces cerevisiae [5] = assay: DNA damaging activity against DNA repair-deficient RS 322YK (rad 52Y) yeast assessed as drug concentration required to produce 12 mm zone of inhibition up to 8000 ug/mL; type: functional, organism-based
Saccharomyces cerevisiae [6] = assay: DNA damaging activity against DNA repair-deficient RS 321 yeast assessed as drug concentration required to produce 12 mm zone of inhibition up to 8000 ug/mL; type: functional, organism-based
Saccharomyces cerevisiae [7] = assay: DNA damaging activity against DNA repair-deficient RS 167N (rad6) yeast assessed as drug concentration required to produce 12 mm zone of inhibition up to 8000 ug/mL; type: functional, organism-based
Saccharomyces cerevisiae [8] = assay: DNA damaging activity against DNA repair-deficient RS 188N (RAD+) yeast assessed as drug concentration required to produce 12 mm zone of inhibition up to 8000 ug/mL; type: functional, organism-based

SMILES	IC12 (Saccharomyces cerevisiae [1]) [µg/mL]	IC12 (Saccharomyces cerevisiae [2]) [µg/mL]	IC12 (Saccharomyces cerevisiae [3]) [µg/mL]	IC12 (Saccharomyces cerevisiae [4]) [µg/mL]	Activity (Saccharomyces cerevisiae [5])	Activity (Saccharomyces cerevisiae [6])	Activity (Saccharomyces cerevisiae [7])	Activity (Saccharomyces cerevisiae [8])
C[C@@H]1CC[C@]2(NC1)O[C@H]1C[C@H]3[C@@H]4CC=C5C[C@@H](O)CC[C@]5(C)[C@H]4CC[C@]3(C)[C@H]1[C@@H]2C [SOLASODINE]	5	1.9	> 10	> 6.1	–	–	–	–
CC[C@@]1(O)C(=O)OCc2c1cc1n(c2=O)Cc2cc3ccccc3nc2-1 [CAMPTOTHECIN]	0.9	–	–	100	–	–	–	–
CC(=O)N1C[C@H](C)CC[C@@]12O[C@H]1C[C@H]3[C@@H]4CC=C5C[C@@H](O)CC[C@]5(C)[C@H]4CC[C@]3(C)[C@H]1[C@@H]2C	–	–	–	–	inactive	inactive	inactive	inactive
C[C@@H]1CC[C@]2(NC1)O[C@H]1C[C@H]3[C@@H]4CC=C5C[C@@H](O[C@@H]6O[C@H](CO)[C@@H](O)[C@H](O)[C@H]6O)CC[C@]5(C)[C@H]4CC[C@]3(C)[C@H]1[C@@H]2C	–	–	–	–	inactive	inactive	inactive	inactive
CC(=O)O[C@H]1CC[C@@]2(C)C(=CC[C@H]3[C@@H]4C[C@@H]5O[C@@]6(CC[C@@H](C)CN6)[C@@H](C)[C@@H]5[C@@]4(C)CC[C@@H]32)C1	21	3	30	15.7	–	–	–	–
CC(=O)O[C@H]1CC[C@@]2(C)C(=CC[C@H]3[C@@H]4C[C@@H]5O[C@@]6(CC[C@@H](C)CN6C(C)=O)[C@@H](C)[C@@H]5[C@@]4(C)CC[C@@H]32)C1	–	–	–	–	inactive	inactive	inactive	inactive
